Columns and labels:
[1] = test system: opioid receptors; conditions: cited from earlier work
[2] = in comparison to a 15 mg dose of hydrocodone

Row | Compound | antagonist potency relative to naltrexone [1] [%] | Equianalgesic Doses of Opioids, Calculated Dose [2] [mg]
1 | Oc1ccc2c3c1O[C@H]1[C@H](O)CC[C@@]4(O)[C@@H](C2)N(CC2CC2)CC[C@]314 [6-β-naltrexol] | 2 to 4 | –
2 | COc1ccc2c3c1O[C@H]1[C@@H](O)C=C[C@H]4[C@@H](C2)N(C)CC[C@@]341 [Codeine] | – | 90.0
3 | COc1ccc2c3c1OC1C(=O)CC[C@H]4[C@@H](C2)N(C)CC[C@]314 (stereo partly shown) [Hydrocodone, 4,5-epoxy-3-methoxy-17-methylmorphinan-6-one] | – | 15.0
4 | CN1CC[C@]23CCCC[C@H]2[C@H]1Cc1ccc(O)cc13 [Levorphanol] | – | 1.8
5 | CCC(=O)C(CC(C)N(C)C)(c1ccccc1)c1ccccc1 (stereo not shown) [Methadone] | – | 9.0
6 | COc1ccc2c3c1OC1C(=O)CC[C@@]4(O)[C@@H](C2)N(C)CC[C@]314 (stereo partly shown) [Oxycodone, 4,5-epoxy-14-hydroxy-3-methoxy-17-methylmorphinan-6-one] | – | 13.5
7 | Meperidine | – | 135.0

From US20130337020A1, “Pharmaceutical Compositions” (Alpharma Pharmaceuticals LLC, priority 2006, published 2013)
